Measured values published in the supplement of paper PMC6045584.
± gives the standard deviation of the averaged measurements.

Legend:
[1] = compound: T1, CNC(=O)c1ccc(N2C(=S)N(c3ccc(C#N)c(C(F)(F)F)c3)C(=O)C2(C)C)cc1F [MDV3100]; assay: surviving fraction relative to DMSO-only wells; higher = less growth inhibition; details: exposure time: 5 days
How it was run: (§1)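 Continuous five-day exposure to inhibitors at 0.5, 1, 5, 10, 50, 100, 500 and 1000 nM started 24 hours after log-phase tumour cell lines were seeded at 250–500 cells per well in 384-well plates. Luminescence was read after 10 minutes at room temperature. Viability is given as surviving fraction, meaning CellTiter-Glo luminescence normalised to the median of DMSO-only wells.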

[2] = compound: T2, CCCCCCCCCCCCCCCC(=O)Nc1ccn([C@@H]2O[C@H](CO)[C@@H](O)[C@@H]2C#N)c(=O)n1 [SAPACITABINE]; assay: as above; details: exposure time: 5 days
How it was run: as §1

[3] = compound: T3, CC[C@@H]1C(=O)N(C)c2cnc(Nc3ccc(C(=O)NC4CCN(C)CC4)cc3OC)nc2N1C1CCCC1 [BI-2536]; assay: as above; details: exposure time: 5 days
How it was run: as §1

[4] = compound: T4, CN(C)C/C=C/C(=O)Nc1cc2c(Nc3ccc(F)c(Cl)c3)ncnc2cc1O[C@H]1CCOC1 [AFATINIB]; assay: as above; details: exposure time: 5 days
How it was run: as §1

[5] = compound: T5, CC1(C)CC(=O)c2c(C(F)(F)F)nn(-c3ccc(C(N)=O)c(N[C@H]4CC[C@H](OC(=O)CN)CC4)c3)c2C1 [SNX-5422]; assay: as above; details: exposure time: 5 days
How it was run: as §1

[6] = compound: Cn1cc(C2=Nc3cc(NC(=O)C(N)C4CCCCC4)cc4c3C2=CNNC4=O)cn1; assay: as above; details: exposure time: 5 days
How it was run: as §1

[7] = compound: T6, C=CC(=O)Nc1cc2c(Nc3ccc(F)c(Cl)c3)ncnc2cc1OCCCN1CCOCC1 [CANERTINIB]; assay: as above; details: exposure time: 5 days
How it was run: as §1

[8] = compound: T7, Nc1nc2[nH]cnc2c(=S)[nH]1 [TIOGUANINE]; assay: as above; details: exposure time: 5 days
How it was run: as §1

[9] = compound: T1, MDV3100; assay: area under dose-response curve of surviving fraction (unscaled, Aref=0) (surviving fraction x log10(nM)); higher = more resistant; details: exposure time: 5 days; dose range 0.5-1000 nM
How it was run: (§2)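 Inhibitor was applied to tumour cell lines at eight concentrations (0.5 to 1000 nM) for five days in 384-well plates. Luminescence from CellTiter-Glo, scaled to DMSO-only wells, gave surviving fractions in three screens per line, and these were fitted by 3-parameter logistic regression with the drc R package. The area under the curve is an unscaled activity area. Aref was 0, and dose was on a log10 scale.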

[10] = compound: T2, SAPACITABINE; assay: as above; details: exposure time: 5 days; dose range 0.5-1000 nM
How it was run: as §2

[11] = compound: T3, BI-2536; assay: as above; details: exposure time: 5 days; dose range 0.5-1000 nM
How it was run: as §2

[12] = compound: T4, AFATINIB; assay: as above; details: exposure time: 5 days; dose range 0.5-1000 nM
How it was run: as §2

[13] = compound: T5, SNX-5422; assay: as above; details: exposure time: 5 days; dose range 0.5-1000 nM
How it was run: as §2

[14] = compound: Cn1cc(C2=Nc3cc(NC(=O)C(N)C4CCCCC4)cc4c3C2=CNNC4=O)cn1; assay: as above; details: exposure time: 5 days; dose range 0.5-1000 nM
How it was run: as §2

[15] = compound: T7, TIOGUANINE; assay: as above; details: exposure time: 5 days; dose range 0.5-1000 nM
How it was run: as §2

[16] = compound: T6, CANERTINIB; assay: as above; details: exposure time: 5 days; dose range 0.5-1000 nM
How it was run: as §2

C33A CERVIX was tested, and the surviving fraction ([1]; 0.5 nM) was 0.753 ± 0.059, the surviving fraction ([1]; 1 nM) was 0.772 ± 0.05 and the surviving fraction ([1]; 5 nM) was 0.976 ± 0.063. For the same test system, the surviving fraction ([1]; 10 nM) was 1.07 ± 0.15, the surviving fraction ([1]; 50 nM) was 0.983 ± 0.098 and the surviving fraction ([1]; 100 nM) was 1.02 ± 0.05. It also gave a surviving fraction ([1]; 500 nM) of 0.834 ± 0.059, a surviving fraction ([1]; 1000 nM) of 0.868 ± 0.044 and a surviving fraction ([2]; 0.5 nM) of 1.09 ± 0.078. It also gave a surviving fraction ([2]; 1 nM) of 0.987 ± 0.071, a surviving fraction ([2]; 5 nM) of 1.12 ± 0.026 and a surviving fraction ([2]; 10 nM) of 0.981 ± 0.059. It also gave a surviving fraction ([2]; 50 nM) of 0.711 ± 0.08, a surviving fraction ([2]; 100 nM) of 0.457 ± 0.029 and a surviving fraction ([2]; 500 nM) of 0.214 ± 0.024. It also gave a surviving fraction ([2]; 1000 nM) of 0.142 ± 0.021, a surviving fraction ([3]; 0.5 nM) of 1.12 ± 0.021 and a surviving fraction ([3]; 1 nM) of 1.13 ± 0.085. It also gave a surviving fraction ([3]; 5 nM) of 0.266 ± 0.052, a surviving fraction ([3]; 10 nM) of 0.073 ± 0.011 and a surviving fraction ([3]; 50 nM) of 0.0473 ± 0.0068. For the same test system, the surviving fraction ([3]; 100 nM) was 0.036 ± 0.007, the surviving fraction ([3]; 500 nM) was 0.0303 ± 0.01 and the surviving fraction ([3]; 1000 nM) was 0.032 ± 0.015. For the same test system, the surviving fraction ([4]; 0.5 nM) was 0.907 ± 0.059, the surviving fraction ([4]; 1 nM) was 1.02 ± 0.12 and the surviving fraction ([4]; 5 nM) was 0.909 ± 0.046. The surviving fraction ([4]; 10 nM) was 0.939 ± 0.085, the surviving fraction ([4]; 50 nM) was 0.507 ± 0.0065 and the surviving fraction ([4]; 100 nM) was 0.417 ± 0.0072. It also gave a surviving fraction ([4]; 500 nM) of 0.337 ± 0.038, a surviving fraction ([4]; 1000 nM) of 0.23 ± 0.0027 and a surviving fraction ([5]; 0.5 nM) of 1.03 ± 0.086. It also gave a surviving fraction ([5]; 1 nM) of 0.977 ± 0.073, a surviving fraction ([5]; 5 nM) of 1.03 ± 0.048 and a surviving fraction ([5]; 10 nM) of 1.01 ± 0.069. For the same test system, the surviving fraction ([5]; 50 nM) was 0.316 ± 0.025, the surviving fraction ([5]; 100 nM) was 0.208 ± 0.086 and the surviving fraction ([5]; 500 nM) was 0.056 ± 0.022. For the same test system, the surviving fraction ([5]; 1000 nM) was 0.0593 ± 0.025, the surviving fraction ([6]; 0.5 nM) was 0.878 ± 0.066 and the surviving fraction ([6]; 1 nM) was 0.99 ± 0.041. It also gave a surviving fraction ([6]; 5 nM) of 1.02 ± 0.094, a surviving fraction ([6]; 10 nM) of 1.03 ± 0.036 and a surviving fraction ([6]; 50 nM) of 0.952 ± 0.046. The surviving fraction ([6]; 100 nM) was 0.833 ± 0.063, the surviving fraction ([6]; 500 nM) was 0.335 ± 0.011 and the surviving fraction ([6]; 1000 nM) was 0.0597 ± 0.025. For the same test system, the surviving fraction ([7]; 0.5 nM) was 1.08 ± 0.039, the surviving fraction ([7]; 1 nM) was 1 ± 0.057 and the surviving fraction ([7]; 5 nM) was 1.37 ± 0.12. It also gave a surviving fraction ([7]; 10 nM) of 1.04 ± 0.11, a surviving fraction ([7]; 50 nM) of 1.1 ± 0.015 and a surviving fraction ([7]; 100 nM) of 0.84 ± 0.025. It also gave a surviving fraction ([7]; 500 nM) of 0.578 ± 0.044, a surviving fraction ([7]; 1000 nM) of 0.349 ± 0.006 and a surviving fraction ([8]; 0.5 nM) of 0.807 ± 0.079. The surviving fraction ([8]; 1 nM) was 0.711 ± 0.052, the surviving fraction ([8]; 5 nM) was 0.9503 ± 0.0032 and the surviving fraction ([8]; 10 nM) was 0.91 ± 0.048. The surviving fraction ([8]; 50 nM) was 1.03 ± 0.092, the surviving fraction ([8]; 100 nM) was 1.02 ± 0.023 and the surviving fraction ([8]; 500 nM) was 0.707 ± 0.043. For the same test system, the surviving fraction ([8]; 1000 nM) was 0.648 ± 0.061, the “area under dose-response curve” value [9] was 3.15 and the “area under dose-response curve” value [10] was 2.35. The “area under dose-response curve” value [11] was 0.996, the “area under dose-response curve” value [12] was 2.23 and the “area under dose-response curve” value [13] was 1.96. The “area under dose-response curve” value [14] was 2.75 and the “area under dose-response curve” value [15] was 2.8.
Work on CCK81 LARGE INTESTINE yielded a surviving fraction ([1]; 0.5 nM) of 0.843 ± 0.11, a surviving fraction ([1]; 1 nM) of 0.8 ± 0.19 and a surviving fraction ([1]; 5 nM) of 0.717 ± 0.076. For the same test system, the surviving fraction ([1]; 10 nM) was 0.728 ± 0.046, the surviving fraction ([1]; 50 nM) was 0.75 ± 0.091 and the surviving fraction ([1]; 100 nM) was 0.757 ± 0.068. The surviving fraction ([1]; 500 nM) was 0.79 ± 0.03, the surviving fraction ([1]; 1000 nM) was 0.728 ± 0.06 and the surviving fraction ([2]; 0.5 nM) was 0.972 ± 0.18. The surviving fraction ([2]; 1 nM) was 0.94 ± 0.2, the surviving fraction ([2]; 5 nM) was 0.813 ± 0.13 and the surviving fraction ([2]; 10 nM) was 0.7 ± 0.13. The surviving fraction ([2]; 50 nM) was 0.427 ± 0.12, the surviving fraction ([2]; 100 nM) was 0.482 ± 0.041 and the surviving fraction ([2]; 500 nM) was 0.456 ± 0.047. For the same test system, the surviving fraction ([2]; 1000 nM) was 0.47 ± 0.056, the surviving fraction ([7]; 0.5 nM) was 0.778 ± 0.19 and the surviving fraction ([7]; 1 nM) was 0.874 ± 0.16. For the same test system, the surviving fraction ([7]; 5 nM) was 0.928 ± 0.13, the surviving fraction ([7]; 10 nM) was 0.816 ± 0.18 and the surviving fraction ([7]; 50 nM) was 0.186 ± 0.03. The surviving fraction ([7]; 100 nM) was 0.0957 ± 0.019, the surviving fraction ([7]; 500 nM) was 0.0373 ± 0.0083 and the surviving fraction ([7]; 1000 nM) was 0.0263 ± 0.0059. For the same test system, the “area under dose-response curve” value [9] was 2.49, the “area under dose-response curve” value [10] was 2.16 and the “area under dose-response curve” value [16] was 1.68.
